Source: patent publication US12077503B2, “Substituted cyclic amides and their use as herbicides” (FMC CORPORATION, priority 2015, dated 2024)

Columns and labels:
Format in all cases: in vivo
[1] = test system: barnyardgrass (Echinochloa crus-galli); assay: Test G Pre-Emergence Protocol; details: Echinochloa crus-galli, pre-emergence, 312 h, evaluated after 13 days
Method in brief: (§1)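 Seeds were sown in standard soil and kept one day in a glasshouse (24/16° C day/night, 14 h light, 65% humidity), then sprayed with compound in acetone/water (50:50) containing 0.5% Tween 20 at 15.625, 62.5 or 250 g/ha. Damage was scored after 13 days (0 = none, 100 = total).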

[2] = test system: corn (Zea mays); assay: Test G Pre-Emergence Protocol; details: Zea mays, pre-emergence, 312 h, evaluated after 13 days
Method in brief: as §1

[3] = test system: ivy-leaved morning glory (Ipomoea hederacea); assay: Test G Pre-Emergence Protocol; details: Ipomoea, pre-emergence, 312 h, evaluated after 13 days
Method in brief: as §1

[4] = test system: velvetleaf (Abutilon theophrasti); assay: Test G Pre-Emergence Protocol; details: Abutilon theophrasti, pre-emergence, 312 h, evaluated after 13 days
Method in brief: as §1

[5] = test system: redroot pigweed (Amaranthus retroflexus); assay: Test G Pre-Emergence Protocol; details: Amaranthus retroflexus, pre-emergence, 312 h, evaluated after 13 days
Method in brief: as §1

[6] = test system: giant foxtail (Setaria faberi); assay: Test G Pre-Emergence Protocol; details: Setaria faberi, pre-emergence, 312 h, evaluated after 13 days
Method in brief: as §1

[7] = test system: barnyardgrass (Echinochloa crus-galli); assay: Test G Post-Emergence Protocol; details: Echinochloa crus-galli, post-emergence, 312 h, read-out: Barnyardgrass damage rating
Method in brief: (§2)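 Foliar application was made 8 days after sowing, using an aqueous spray of the active in acetone/water (50:50) with 0.5% Tween 20, at doses of 15.625, 62.5 or 250 g/ha. Injury was assessed 13 days later, where 100 meant the plant was fully damaged.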

[8] = test system: corn (Zea mays); assay: Test G Post-Emergence Protocol; details: Zea mays, post-emergence, 312 h, read-out: Corn damage rating
Method in brief: as §2

[9] = test system: ivy-leaved morning glory (Ipomoea hederacea); assay: Test G Post-Emergence Protocol; details: Ipomoea, post-emergence, 312 h, read-out: Morningglory, Ivy-leaved damage rating
Method in brief: as §2

[10] = test system: velvetleaf (Abutilon theophrasti); assay: Test G Post-Emergence Protocol; details: Abutilon theophrasti, post-emergence, 312 h, read-out: Velvetleaf damage rating
Method in brief: as §2

[11] = test system: redroot pigweed (Amaranthus retroflexus); assay: Test G Post-Emergence Protocol; details: Amaranthus retroflexus, post-emergence, 312 h, read-out: Pigweed, Redroot damage rating
Method in brief: as §2

[12] = test system: giant foxtail (Setaria faberi); assay: Test G Post-Emergence Protocol; details: Setaria faberi, post-emergence, 312 h, read-out: Foxtail, Giant damage rating
Method in brief: as §2

[13] = 15.625 g ai/ha, evaluated after 13 days (100=total damage to plant; 0=no damage to plant)
[14] = 62.5 g ai/ha, evaluated after 13 days, 100=total damage to plant, 0=no damage to plant
[15] = 250 g ai/ha, evaluated after 13 days, 100=total damage to plant, 0=no damage to plant

CN1C[C@@H](c2cccc(I)c2)[C@H](C(=O)Nc2cccc(F)c2F)C1=O (racemic) [Compound 1754]
pest or weed control at 15.625 g/ha ([1]; 15.625 g ai/ha, read-out: Barnyardgrass damage rating (100=total damage to plant; 0=no damage to plant)): 60% | pest or weed control at 62.5 g/ha ([1]; 62.5 g ai/ha, 100=total damage to plant, 0=no damage to plant, read-out: Barnyardgrass damage rating): 80% | pest or weed control at 250 g/ha ([1]; 250 g ai/ha, read-out: Barnyardgrass damage rating (100=total damage to plant; 0=no damage to plant)): 90% | plant injury at 15.625 g/ha ([2]; 15.625 g ai/ha, read-out: Corn damage rating (100=total damage to plant; 0=no damage to plant)): 0% | plant injury at 62.5 g/ha ([2]; 62.5 g ai/ha, 100=total damage to plant, 0=no damage to plant, read-out: Corn damage rating): 0% | plant injury at 250 g/ha ([2]; 250 g ai/ha, read-out: Corn damage rating (100=total damage to plant; 0=no damage to plant)): 80% | pest or weed control at 15.625 g/ha ([3]; 15.625 g ai/ha, read-out: Morningglory, Ivy-leaved damage rating (100=total damage to plant; 0=no damage to plant)): 0% | pest or weed control at 62.5 g/ha ([3]; 62.5 g ai/ha, 100=total damage to plant, 0=no damage to plant, read-out: Morningglory, Ivy-leaved damage rating): 0% | pest or weed control at 250 g/ha ([3]; 250 g ai/ha, read-out: Morningglory, Ivy-leaved damage rating (100=total damage to plant; 0=no damage to plant)): 10% | pest or weed control at 15.625 g/ha ([4]; 15.625 g ai/ha, read-out: Velvetleaf damage rating (100=total damage to plant; 0=no damage to plant)): 10% | pest or weed control at 62.5 g/ha ([4]; 62.5 g ai/ha, 100=total damage to plant, 0=no damage to plant, read-out: Velvetleaf damage rating): 0% | pest or weed control at 250 g/ha ([4]; 250 g ai/ha, read-out: Velvetleaf damage rating (100=total damage to plant; 0=no damage to plant)): 30% | pest or weed control at 15.625 g/ha ([5]; 15.625 g ai/ha, read-out: Pigweed, Redroot damage rating (100=total damage to plant; 0=no damage to plant)): 10% | pest or weed control at 62.5 g/ha ([5]; 62.5 g ai/ha, 100=total damage to plant, 0=no damage to plant, read-out: Pigweed, Redroot damage rating): 20% | pest or weed control at 250 g/ha ([5]; 250 g ai/ha, read-out: Pigweed, Redroot damage rating (100=total damage to plant; 0=no damage to plant)): 60% | pest or weed control at 15.625 g/ha ([6]; 15.625 g ai/ha, read-out: Foxtail, Giant damage rating (100=total damage to plant; 0=no damage to plant)): 80% | pest or weed control at 62.5 g/ha ([6]; 62.5 g ai/ha, 100=total damage to plant, 0=no damage to plant, read-out: Foxtail, Giant damage rating): 90% | pest or weed control at 250 g/ha ([6]; 250 g ai/ha, read-out: Foxtail, Giant damage rating (100=total damage to plant; 0=no damage to plant)): 90% | pest or weed control at 15.625 g/ha [7, 13]: 30% | pest or weed control at 62.5 g/ha [7, 14]: 70% | pest or weed control at 250 g/ha [7, 15]: 80% | plant injury at 15.625 g/ha [8, 13]: 10% | plant injury at 62.5 g/ha [8, 14]: 60% | plant injury at 250 g/ha [8, 15]: 70% | pest or weed control at 15.625 g/ha [9, 13]: 30% | pest or weed control at 62.5 g/ha [9, 14]: 70% | pest or weed control at 250 g/ha [9, 15]: 70% | pest or weed control at 15.625 g/ha [10, 13]: 10% | pest or weed control at 62.5 g/ha [10, 14]: 30% | pest or weed control at 250 g/ha [10, 15]: 60% | pest or weed control at 15.625 g/ha [11, 13]: 0% | pest or weed control at 62.5 g/ha [11, 14]: 40% | pest or weed control at 250 g/ha [11, 15]: 70% | pest or weed control at 15.625 g/ha [12, 13]: 60% | pest or weed control at 62.5 g/ha [12, 14]: 80%
